In patent US10517889B2, “Modulators of SMAD7 expression” (Ionis Pharmaceuticals, Inc., priority 2017, dated 2019):
Where “and” joins values, the source holds several entries; their conditions need not be identical. Equal values may be shown once. Strand notation (5' to 3'): a small letter for the sugar, then the base; units joined by * are phosphorothioate-linked, units joined directly phosphodiester-linked; [ ] holds rarer units or linkages, { } end groups; capitals alone tell only the bases. k = constrained ethyl (cEt); [5mC] = 5-methylcytosine; d = 2'-deoxy (DNA)

How the values were obtained:
human SMAD7 mRNA [1] = test: Antisense inhibition of human SMAD7 mRNA expression in Hep3B cells by 3-10-3 cEt gapmers, 10,000 nM, electroporation (Example 2); format: cell-based; details: approximately 24 hours
How it was run: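 SMAD7 mRNA was measured by real-time PCR (RTS5062) with RiboGreen total-RNA normalization, about 24 h after 10,000 nM gapmer was delivered by electroporation into Hep3B cells at 20,000 per well. Gapmers were 16-mer 3-10-3 cEt, fully phosphorothioate; values are % inhibition versus untreated controls.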

human SMAD7 mRNA [2] = test: Dose-dependent inhibition of human SMAD7 mRNA expression in Hep3B cells (Example 3, Study 1 and 2); format: cell-based; details: electroporation; for % inhibition of SMAD7 mRNA expression: approximately 16 hours; for IC50: Study 2 (740-20000 nM)
Protocol: The antisense oligonucleotides were tested in a series of experiments that had similar culture conditions as described below.
(§1) Cells were plated at a density of 20,000 cells per well and transfected using electroporation with 0.31 μM, 1.25 μM, 5.00 μM, or 20.00 μM concentrations of antisense oligonucleotide, as specified in the Tables below. ION 483663 was included in the assays for comparison. After a treatment period of approximately 16 hours, RNA was isolated from the cells and SMAD7 mRNA levels were measured by quantitative real-time PCR. Primer probe set RTS5062 was used to measure human SMAD7 mRNA levels. SMAD7 mRNA levels were adjusted according to total RNA content, as measured by RIBOGREEN®. Results are presented as percent inhibition of SMAD7 mRNA expression, relative to untreated control cells.
The half maximal inhibitory concentration (IC50) of each oligonucleotide is also presented.
as §1, with “0.74” for “0.31”, “2.22” for “1.25”, “6.67” for “5.00”, “below.” for “below. ION 483663 was included in the assays for comparison.”

[3] = Hep3B cells, electroporation with 10,000 nM antisense oligonucleotide, primer probe set RTS5062, relative to untreated control cells
[4] = 740 nM, Study 2, relative to untreated control cells
[5] = Hep3B cells, electroporation with 10,000 nM antisense oligonucleotide, SMAD7 mRNA by RT-PCR (RTS5062), relative to untreated control cells

| Substance | % inhibition of SMAD7 mRNA expression (human SMAD7 mRNA [1]; [3]) [%] | % inhibition of SMAD7 mRNA expression (human SMAD7 mRNA [2]; [4]) [%] | % inhibition of SMAD7 mRNA expression (human SMAD7 mRNA [2]; 2220 nM, Study 2) | % inhibition of SMAD7 mRNA expression (human SMAD7 mRNA [2]; 6670.0 nM, Study 2) | % inhibition of SMAD7 mRNA expression (human SMAD7 mRNA [2]; 20000.0 nM, Study 2) | IC50 (human SMAD7 mRNA [2]) [µM] | % Inhibition (human SMAD7 mRNA [1]; [5]) [%] | % Inhibition (human SMAD7 mRNA [1]; SMAD7 mRNA, Hep3B cells, 10,000 nM antisense oligonucleotide, electroporation, primer probe set RTS5062, relative to untreated control cells) [%] |
| --- | --- | --- | --- | --- | --- | --- | --- | --- |
| 799364 (kT*k[5mC]*k[5mC]*dG*dA*dG*dT*dT*dA*dT*d[5mC]*d[5mC]*d[5mC]*k[5mC]*kA*kT; antisense) [compound 799364] | 73 | 39 | 54% | 67% | 88% | 3 | – | – |
| 799365 (k[5mC]*kT*k[5mC]*d[5mC]*dG*dA*dG*dT*dT*dA*dT*d[5mC]*d[5mC]*k[5mC]*k[5mC]*kA; antisense) [compound 799365] | 61 | 11 | 39% | 73% | 94% | 4 | – | – |
| 799366 (antisense kT*k[5mC]*kT*d[5mC]*d[5mC]*dG*dA*dG*dT*dT*dA*dT*d[5mC]*k[5mC]*k[5mC]*k[5mC]) [compound 799366] | 70 | 18 | 39% | 64% | 76% | 8 | – | – |
| 799369 (antisense kA*k[5mC]*kT*d[5mC]*dA*d[5mC]*dT*dA*dA*dG*dT*d[5mC]*dT*k[5mC]*k[5mC]*kG) [compound 799369] | – | 1 | 10% | 46% | 74% | 6 | 50 | – |
| 799382 (antisense kA*k[5mC]*kT*dT*dT*dT*dA*dG*d[5mC]*dA*dA*dA*d[5mC]*kA*kG*kA) [compound 799382] | 82 | 0 | 36% | 56% | 75% | 3 | – | – |
| 799396 (antisense kT*kG*kT*dT*dA*d[5mC]*dA*dA*dA*dT*dA*d[5mC]*dA*kG*kA*kG) [compound 799396] | – | – | 52% and 38% | 72% and 70% | 78% and 85% | – | 69 | 66 |
| 799402 (antisense kG*kG*kT*d[5mC]*dA*d[5mC]*dT*dG*dT*dT*d[5mC]*dT*d[5mC]*kT*k[5mC]*kT) [compound 799402] | 66 | 0 | 3% | 13% | 50% | 10 | – | – |
| 799404 (antisense kG*kG*kA*dA*d[5mC]*dA*dT*dT*dT*dA*d[5mC]*d[5mC]*d[5mC]*k[5mC]*kT*kG) [compound 799404] | 68 | 15 | 39% | 42% | 59% | 2 | – | – |
| 799406 (antisense kG*kG*kG*dA*dA*d[5mC]*dA*dT*dG*dG*d[5mC]*d[5mC]*dT*kT*kT*k[5mC]) [compound 799406] | 65 | 30 | 51% | 77% | 84% | 3 | – | – |
| 799410 (antisense kT*k[5mC]*kT*dG*dT*dT*dT*dA*d[5mC]*dA*d[5mC]*dA*d[5mC]*kA*kT*kT) [compound 799410] | – | 26 | 42% | 64% | 74% | 2 | 79 | – |
| 799412 (antisense kT*kT*k[5mC]*dT*dT*dA*d[5mC]*dA*d[5mC]*dA*dG*d[5mC]*dA*kG*k[5mC]*kG) [compound 799412] | – | 35 | 51% | 67% | 65% | 4 | 60 | – |
| 799429 (antisense k[5mC]*kA*k[5mC]*dA*dA*dG*dT*d[5mC]*dA*d[5mC]*dA*dA*d[5mC]*kT*kG*kG) [compound 799429] | – | 24 | 50% | 60% | 63% | 7 | 74 | – |
| 799467 (antisense kG*k[5mC]*kA*dG*dA*d[5mC]*dA*dG*dA*dA*dG*d[5mC]*dT*k[5mC]*kT*kA) [compound 799467] | – | 4 | 27% | 65% | 57% | > 20 | 69 | – |
| 799471 (antisense k[5mC]*kA*k[5mC]*dA*dG*dA*dA*dA*dA*dG*d[5mC]*dT*d[5mC]*k[5mC]*kG*k[5mC]) [compound 799471] | – | 0 | 9% | 14% | 46% | 5 | 71 | – |
| 799486 (antisense k[5mC]*kA*kT*dA*dA*dT*dG*dA*d[5mC]*dT*dT*dA*dT*k[5mC]*k[5mC]*kA) [compound 799486] | – | 20 | 17% | 57% | 88% | 11 | 52 | – |
| 799496 (antisense kG*kG*kG*dT*dG*dA*dG*dG*dT*dG*dG*d[5mC]*dT*kG*k[5mC]*kG) [compound 799496] | 72 | 3 | 12% | 34% | 69% | 3 | – | – |
| 799509 (antisense kA*kG*kA*dA*dA*d[5mC]*dA*dG*dT*d[5mC]*dT*d[5mC]*d[5mC]*kA*k[5mC]*kA) [compound 799509] | – | 21 | 54% | 69% | 87% | 12 | 57 | – |
| 799511 (antisense kT*kA*kA*dT*dG*dA*d[5mC]*dA*dA*dT*dT*d[5mC]*d[5mC]*kA*kG*k[5mC]) [compound 799511] | – | 0 | 0% | 35% | 65% | 3 | 65 | – |
